From ChEMBL document CHEMBL1201862, “PubChem BioAssay data set” (2004)
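Step 1: Grow cells in 96-well plates. Step 2: Expose to compound for 48 hours at 5 concentrations. Step 3: Interpolate endpoints linearly; if unreached, use highest concentration. GI50 = concentration required for 50% inhibition of growth.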 Active and inactive are the calls of the source. Rule as the data show it: active = GI50 up to about 1.1 µM and inactive = higher.

What was measured:
Assay in all cases: NCI-60 cell line screen, 48 h
786-0 = test system: 786-0
A498 = test system: A498
A549 = test system: A549
ACHN = test system: ACHN
BT-549 = test system: BT-549
CAKI-1 = test system: CAKI-1
COLO 205 = test system: COLO 205
DU-145 = test system: DU-145
EKVX = test system: EKVX
HCT-116 = test system: HCT-116
HCT-15 = test system: HCT-15
HOP-92 = test system: HOP-92
HT-29 = test system: HT-29
Hs-578T = test system: Hs-578T
IGROV-1 = test system: IGROV-1
K562 = test system: K562
KM12 = test system: KM12
LOX IMVI = test system: LOX IMVI
M14 = test system: M14
MCF7 = test system: MCF7
MDA-MB-231 = test system: MDA-MB-231
MDA-MB-435 = test system: MDA-MB-435
MDA-N = test system: MDA-N
MOLT-4 = test system: MOLT-4
Malme-3M = test system: Malme-3M
NCI-H226 = test system: NCI-H226
NCI-H23 = test system: NCI-H23
NCI-H460 = test system: NCI-H460
NCI-H522 = test system: NCI-H522
NCI/ADR-RES = test system: NCI/ADR-RES
OVCAR-3 = test system: OVCAR-3
OVCAR-4 = test system: OVCAR-4
OVCAR-5 = test system: OVCAR-5
OVCAR-8 = test system: OVCAR-8
PC-3 = test system: PC-3
RPMI-8226 = test system: RPMI-8226
RXF 393 = test system: RXF 393
SF-268 = test system: SF-268
SF-295 = test system: SF-295
SF-539 = test system: SF-539
SK-MEL-28 = test system: SK-MEL-28
SK-MEL-2 = test system: SK-MEL-2
SK-MEL-5 = test system: SK-MEL-5
SN12C = test system: SN12C
SNB-19 = test system: SNB-19
SNB-75 = test system: SNB-75
SR = test system: SR
SW-620 = test system: SW-620
T47D = test system: T47D
TK-10 = test system: TK-10
U-251 = test system: U-251
UACC-257 = test system: UACC-257
UACC-62 = test system: UACC-62
UO-31 = test system: UO-31
CCRF-CEM = test system: CCRF-CEM
HCC 2998 = test system: HCC 2998
HL-60 = test system: HL-60
HOP-62 = test system: HOP-62
SK-OV-3 = test system: SK-OV-3

**Q.** For O=C(O)C(Cc1ccccc1-c1ccccc1)C(=O)O, which GI50 (786-0) is on record?
**A.** > 100 µM (inactive)

**Q.** What about the GI50 (A498) of the same compound?
**A.** > 100 µM (inactive)

**Q.** And the GI50 (A549)?
**A.** > 100 µM (inactive)

**Q.** And the GI50 (ACHN)?
**A.** > 100 µM (inactive)

**Q.** And the GI50 (BT-549)?
**A.** > 100 µM (inactive)

**Q.** What about the GI50 (CAKI-1) of the same compound?
**A.** > 100 µM (inactive)

**Q.** And the GI50 (COLO 205)?
**A.** > 100 µM (inactive)

**Q.** And the GI50 (DU-145)?
**A.** > 100 µM (inactive)

**Q.** And the GI50 (EKVX)?
**A.** > 100 µM (inactive)

**Q.** What about the GI50 (HCT-116) of the same compound?
**A.** > 100 µM (inactive)

**Q.** And the GI50 (HCT-15)?
**A.** > 100 µM

**Q.** What about the GI50 (HOP-92) of the same compound?
**A.** > 100 µM (inactive)

**Q.** What about the GI50 (HT-29) of the same compound?
**A.** > 100 µM (inactive)

**Q.** And the GI50 (Hs-578T)?
**A.** > 100 µM (inactive)

**Q.** What about the GI50 (IGROV-1) of the same compound?
**A.** > 100 µM (inactive)

**Q.** And the GI50 (K562)?
**A.** > 100 µM (inactive)

**Q.** And the GI50 (KM12)?
**A.** > 100 µM (inactive)

**Q.** What about the GI50 (LOX IMVI) of the same compound?
**A.** > 100 µM (inactive)

**Q.** And the GI50 (M14)?
**A.** > 100 µM (inactive)

**Q.** And the GI50 (MCF7)?
**A.** > 100 µM (inactive)

**Q.** And the GI50 (MDA-MB-231)?
**A.** > 100 µM (inactive)

**Q.** And the GI50 (MDA-MB-435)?
**A.** > 100 µM (inactive)

**Q.** What about the GI50 (MDA-N) of the same compound?
**A.** > 100 µM (inactive)

**Q.** What about the GI50 (MOLT-4) of the same compound?
**A.** > 100 µM (inactive)

**Q.** And the GI50 (Malme-3M)?
**A.** > 100 µM (inactive)

**Q.** What about the GI50 (NCI-H226) of the same compound?
**A.** > 100 µM (inactive)

**Q.** And the GI50 (NCI-H23)?
**A.** > 100 µM (inactive)

**Q.** What about the GI50 (NCI-H460) of the same compound?
**A.** > 100 µM (inactive)

**Q.** What about the GI50 (NCI-H522) of the same compound?
**A.** > 100 µM (inactive)

**Q.** And the GI50 (NCI/ADR-RES)?
**A.** > 100 µM (inactive)

**Q.** What about the GI50 (OVCAR-3) of the same compound?
**A.** 97.1 µM (inactive)

**Q.** And the GI50 (OVCAR-4)?
**A.** > 100 µM (inactive)

**Q.** What about the GI50 (OVCAR-5) of the same compound?
**A.** > 100 µM (inactive)

**Q.** And the GI50 (OVCAR-8)?
**A.** > 100 µM (inactive)

**Q.** And the GI50 (PC-3)?
**A.** > 100 µM (inactive)

**Q.** And the GI50 (RPMI-8226)?
**A.** > 100 µM (inactive)

**Q.** And the GI50 (RXF 393)?
**A.** > 100 µM (inactive)

**Q.** And the GI50 (SF-268)?
**A.** > 100 µM (inactive)

**Q.** What about the GI50 (SF-295) of the same compound?
**A.** 86.7 µM (inactive)

**Q.** What about the GI50 (SF-539) of the same compound?
**A.** > 100 µM (inactive)

**Q.** What about the GI50 (SK-MEL-28) of the same compound?
**A.** > 100 µM (inactive)

**Q.** What about the GI50 (SK-MEL-2) of the same compound?
**A.** > 100 µM (inactive)

**Q.** And the GI50 (SK-MEL-5)?
**A.** > 100 µM (inactive)

**Q.** And the GI50 (SN12C)?
**A.** > 100 µM (inactive)

**Q.** And the GI50 (SNB-19)?
**A.** > 100 µM (inactive)

**Q.** And the GI50 (SNB-75)?
**A.** > 100 µM (inactive)

**Q.** What about the GI50 (SR) of the same compound?
**A.** > 100 µM (inactive)

**Q.** What about the GI50 (SW-620) of the same compound?
**A.** > 100 µM (inactive)

**Q.** And the GI50 (T47D)?
**A.** > 100 µM (inactive)

**Q.** What about the GI50 (TK-10) of the same compound?
**A.** > 100 µM (inactive)

**Q.** And the GI50 (U-251)?
**A.** > 100 µM (inactive)

**Q.** And the GI50 (UACC-257)?
**A.** > 100 µM (inactive)

**Q.** What about the GI50 (UACC-62) of the same compound?
**A.** > 100 µM (inactive)

**Q.** What about the GI50 (UO-31) of the same compound?
**A.** > 100 µM (inactive)

**Q.** Which results are given for [N-]=[N+]=NC[C@H]1OCO[C@H](CN=[N+]=[N-])[C@@H](OCCOCCCl)[C@@H]1OCCOCCCl?
**A.** GI50 (786-0): > 100 µM (inactive); GI50 (A549): > 100 µM (inactive); GI50 (BT-549): > 100 µM (inactive); GI50 (CAKI-1): > 100 µM (inactive); GI50 (CCRF-CEM): > 100 µM (inactive); GI50 (COLO 205): > 100 µM (inactive); GI50 (DU-145): > 100 µM (inactive); GI50 (EKVX): > 100 µM (inactive); GI50 (HCC 2998): > 100 µM (inactive); GI50 (HCT-116): > 100 µM (inactive); GI50 (HCT-15): > 100 µM; GI50 (HL-60): > 100 µM (inactive); GI50 (HOP-62): > 100 µM (inactive); GI50 (HT-29): > 100 µM (inactive); GI50 (Hs-578T): 80 µM (inactive); GI50 (IGROV-1): > 100 µM (inactive); GI50 (K562): > 100 µM (inactive); GI50 (KM12): > 100 µM (inactive); GI50 (LOX IMVI): > 100 µM (inactive); GI50 (M14): > 100 µM (inactive); GI50 (MCF7): > 100 µM (inactive); GI50 (MDA-MB-231): > 100 µM (inactive); GI50 (MDA-MB-435): > 100 µM (inactive); GI50 (MDA-N): > 100 µM (inactive); GI50 (MOLT-4): > 100 µM (inactive); GI50 (Malme-3M): > 100 µM (inactive); GI50 (NCI-H226): > 100 µM (inactive); GI50 (NCI-H23): > 100 µM (inactive); GI50 (NCI-H460): > 100 µM (inactive); GI50 (NCI-H522): > 100 µM (inactive); GI50 (NCI/ADR-RES): > 100 µM (inactive); GI50 (OVCAR-3): > 100 µM (inactive); GI50 (OVCAR-4): > 100 µM (inactive); GI50 (OVCAR-8): > 100 µM (inactive); GI50 (PC-3): > 100 µM (inactive); GI50 (RPMI-8226): > 100 µM (inactive); GI50 (RXF 393): 5.66 µM (inactive); GI50 (SF-268): > 100 µM (inactive); GI50 (SF-295): > 100 µM (inactive); GI50 (SF-539): > 100 µM (inactive); GI50 (SK-MEL-28): > 100 µM (inactive); GI50 (SK-MEL-2): > 100 µM (inactive); GI50 (SK-MEL-5): 57 µM (inactive); GI50 (SK-OV-3): > 100 µM (inactive); GI50 (SN12C): > 100 µM (inactive); GI50 (SNB-19): > 100 µM (inactive); GI50 (SNB-75): > 100 µM (inactive); GI50 (SR): > 100 µM (inactive); GI50 (SW-620): > 100 µM (inactive); GI50 (T47D): > 100 µM (inactive); GI50 (TK-10): > 100 µM (inactive); GI50 (U-251): > 100 µM (inactive); GI50 (UACC-257): > 100 µM (inactive); GI50 (UACC-62): 80 µM (inactive); GI50 (UO-31): 30.1 µM (inactive)
